Data on seven molecules can be found in patent US20190351003A1, “METHODS FOR INHIBITING NONALCOHOLIC STEATOHEPATITIS, NONALCOHOLIC FATTY LIVER DISEASE, AND/OR DE NOVO LIPOGENESIS” (The Regents of the University of California, priority 2017, published 2019).

Data set [1] has as its system human caspases (including caspase-2). Conditions: cited from earlier work.
For data set [2], the system named is MUP-uPA mice. The settings on record: HFD-fed MUP-uPA mice; cited from earlier work.
Data set [3] concerns HFD-fed MUP-uPA mice. The experiment in a line: Casp2 inhibitor treatment of HFD-fed MUP-uPA mice (NASH model). Format: in vivo, mouse. Conditions: for circulating TG / circulating cholesterol: serum. The procedure: FIGS. 6A-6G are pictorial and graphical diagrams showing that Casp2 inhibition ameliorates NASH. […] After 6 weeks of HFD feeding, MUP-uPA mice were treated with Ac-VDVAD (10 μg/g) for 6 weeks while kept on HFD. […] FFPE sections from livers of inhibitor or vehicle treated mice were evaluated for macrovesicular fat, ballooning hepatocytes, MDB and p62 aggregates, macrophages, collagen fibers and lipid droplets. Magnification bars: 100 μm. Images were quantitated as above and results are shown on the right as averages±SEM (Vehicle: n=6; Ac-VDVAD: n=5). […] Mean±SEM. […] Adipocyte size and density were determined as above. ATM (adipose tissue macrophages) were visualized by F4/80 staining and quantified as above.
Casp2^−/− mice were purchased from The Jackson Laboratories and crossed with either C57BL/6 or MUP-uPA mice (Sandgren et al., 1991; Weglarz et al., 2000) to generate Casp2^−/−/WT or Casp2^−/−/MUP-uPA mice, respectively. All mouse lines were either on a pure C57BL/6 genetic background or crossed into it for at least nine generations. Mice were fed with HFD (#S3282, Bio-serv) for a total of 12 weeks, starting at 8 weeks of age. Body weight increase and food consumption were monitored bi-weekly throughout the entire feeding period. Mice were starved for 3 hr before sacrifice and liver and adipose tissue were excised and weighed.
(§1) RNAs were extracted from liver or fat tissue of indicated mice or human biopsies using TRIZOL reagent according to manufacturer's instruction. cDNAs were synthesized from total RNAs using Super Script VILO cDNA Synthesis Kit (Thermo Fisher Scientific, MA) according to the supplier's instructions. The cDNAs were quantified by real-time PCR analysis using SYBR Green Master Mix (Bio-Rad, CA). Primer sequences that were used for human biopsies are as follows:
Liver and epidydimal fat were fixed in 4% paraformaldehyde for 48 hr and embedded in paraffin, sectioned, stained with hematoxylin and eosin (H&E) to evaluate gross morphology and ballooning degeneration and with Sirius Red to determine fibrosis. Prepared FFPE sections were subjected to incubation with antibodies specific to p62 and F4/80 to visualize formation of Mallory-Denk Bodies (MDB) and macrophage infiltration, respectively. For frozen-block preparation, liver tissue was embedded in Tissue-Tek OCT compound (Sakura Finetek), sectioned, and stained with Oil Red O to visualize TG accumulation. Stained areas were quantified using ImageJ software.
Liver lipids were extracted using chloroform/methanol (2:1 v/v) and plasma and liver TG and cholesterol were determined using Triglyceride Colorimetric Assay Kit (Cayman Chemical Company, MI) and Cholesterol Quantification Kit (Sigma-Aldrich, MO) according to manufacturer's instructions.
Morphological analysis of adipocytes was performed by using MRI adipocyte tools (Osman et al., 2013). Images were taken from FFPE epidydimal fat section by AXIO Imager A2 (Carl Zeiss, Germany) and subjected to MRI adipocyte software to obtain area of individual fat cell and number of adipocytes per HMF. Quantification and statistical significance were analyzed by Prism 7 software (GraphPad Prism, CA).
To examine whether Casp2 inhibition is of therapeutic value, Ac-VDVAD-CHO (C23H37N5O10), a cell permeable, Casp2 inhibitor (Talanian et al., 1997) was administrated to HFD-fed MUP-uPA mice. HFD feeding was initiated at eight weeks of age, and six weeks later the mice were given the Casp2 inhibitor on alternate days by intraperitoneal (i.p.) injection (FIG. 6A). After a 6-week treatment regimen, the mice were sacrificed and their liver and adipose tissue were examined. […] Fibrosis was also attenuated. qRT-PCR analysis confirmed that expression of inflammatory cytokines and markers as well as fibrosis-related genes was reduced in response to Casp2 inhibition (FIG. 6C). […]

For data set [4], the system named is Casp2. Nature of the data set: Tunicamycin (ER stress inducer) administration to NC-fed BL6 mice, liver Casp2 expression. Format: in vivo, mouse. Conditions: non-transgenic 3-month-old NC-fed BL6 mice; tunicamycin 1.25 mg/kg i.p. The procedure:
FIGS. 12A-12I are pictorial and graphical diagrams showing elevated Casp2 expression in ER-stressed mice and human NASH. FIG. 12A the results from immunoblot (IB) analysis of whole cell lysates (WCL) from 5-week-old WT and MUP-uPA livers (left) and WCL of livers from 3-month-old WT mice that were i.p. injected with dextrose or tunicamycin (1.25 mg/kg). Results are mean±SEM (dextrose: n=4; tunicamycin: n=5). P: precursor, C: cleaved. […] Results are mean±SEM (WT: n=5; MUP: n=9). […] Casp4 and Casp12 were examined in liver lysates of 5-week-old mice. […] Staining intensity was quantitated using ImageJ as described in FIG. 1.
as §1
ER stress in MUP-uPA liver peaks in 5- to 6-week-old mice and then declines due to reduced uPA expression in newly regenerated hepatocytes (Nakagawa et al., 2014; Sandgren et al., 1991). […]

The target of data set [5] is T1, Flag-tagged SREBP2, Q12772.
T1 chain: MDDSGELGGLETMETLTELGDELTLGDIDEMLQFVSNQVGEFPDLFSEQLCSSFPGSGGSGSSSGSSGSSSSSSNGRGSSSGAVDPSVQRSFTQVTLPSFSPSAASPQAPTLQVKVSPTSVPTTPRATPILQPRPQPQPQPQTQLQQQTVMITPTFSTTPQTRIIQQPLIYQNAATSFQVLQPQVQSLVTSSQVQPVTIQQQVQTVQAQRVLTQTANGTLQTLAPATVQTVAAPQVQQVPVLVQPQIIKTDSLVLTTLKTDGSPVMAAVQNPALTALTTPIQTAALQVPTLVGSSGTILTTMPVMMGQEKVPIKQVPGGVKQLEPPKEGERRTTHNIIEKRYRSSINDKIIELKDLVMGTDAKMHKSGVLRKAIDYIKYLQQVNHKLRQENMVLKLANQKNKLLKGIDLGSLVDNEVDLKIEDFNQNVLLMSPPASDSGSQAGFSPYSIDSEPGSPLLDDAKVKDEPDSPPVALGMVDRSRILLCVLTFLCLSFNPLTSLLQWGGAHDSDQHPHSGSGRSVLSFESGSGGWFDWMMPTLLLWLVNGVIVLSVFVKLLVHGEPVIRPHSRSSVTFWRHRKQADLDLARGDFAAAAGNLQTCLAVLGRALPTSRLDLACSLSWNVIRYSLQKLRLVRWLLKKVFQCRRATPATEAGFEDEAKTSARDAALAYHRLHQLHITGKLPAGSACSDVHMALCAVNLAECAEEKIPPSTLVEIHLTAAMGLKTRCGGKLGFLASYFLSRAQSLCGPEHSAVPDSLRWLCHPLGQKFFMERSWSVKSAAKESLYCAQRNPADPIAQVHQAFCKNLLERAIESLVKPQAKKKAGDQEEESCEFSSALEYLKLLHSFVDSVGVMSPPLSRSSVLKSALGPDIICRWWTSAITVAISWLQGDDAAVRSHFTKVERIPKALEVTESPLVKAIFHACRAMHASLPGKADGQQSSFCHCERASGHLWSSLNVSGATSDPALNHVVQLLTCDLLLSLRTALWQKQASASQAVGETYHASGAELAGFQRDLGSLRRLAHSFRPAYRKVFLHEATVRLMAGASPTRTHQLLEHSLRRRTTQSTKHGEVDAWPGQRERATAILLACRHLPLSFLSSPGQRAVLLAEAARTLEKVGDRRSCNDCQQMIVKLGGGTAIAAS

Where [6] appears, read: HFD-fed MUP-uPA mice, 10 μg/g i.p. every other day for 6 weeks.
The mark [7] stands for this setting: HFD-fed MUP-uPA mice, 10 μg/g i.p. every other day for 6 weeks, liver.
Where [8] appears, read: HFD-fed MUP-uPA mice, 10 μg/g i.p. on alternate days for 6 weeks.
The mark [9] stands for this setting: HFD-fed MUP-uPA mice, 10 μg/g i.p. on alternate days for 6 weeks, liver sections.
Where [10] appears, read: liver WCL, IB, HFD-fed MUP-uPA mice, 10 μg/g i.p. on alternate days for 6 weeks.

As for `C[C@H](NC(=O)C(=O)Nc1ccccc1C(C)(C)C)C(=O)N[C@@H](CC(=O)O)C(=O)COc1c(F)c(F)cc(F)c1F` [IDN-6556], the “activity against human caspases” value in data set [1] (broad-spectrum (pan-caspase) inhibitor) is “activity against all tested human caspases”. For the same molecule, the “inhibition of other classes of proteases or other enzymes or receptors other than caspases” value in data set [1] (selectivity) is given as “no inhibition”.

Regarding `O=C(O)CCCc1ccccc1` [PBA, phenyl butyric acid], in data set [2], the NASH development result is recorded as “effectively inhibited”, the “activation of sterol response element binding proteins (SREBP)” value is “attenuate” and the lipid accumulation result is given as “inhibit”.

Turning to `C[C@H](CCC(=O)NCCS(=O)(=O)O)[C@H]1CC[C@H]2[C@@H]3[C@@H](O)C[C@@H]4C[C@H](O)CC[C@]4(C)[C@H]3CC[C@]12C` [TUDCA, tauroursodeoxycholic acid], in data set [2], the NASH development entry is “effectively inhibited”, the “activation of sterol response element binding proteins (SREBP)” value is recorded as “attenuate” and the lipid accumulation result was “inhibit”.

As to Ac-VDVAD-aldehyde, in data set [3] (setting [6]), the “ATM (adipose tissue macrophage) accumulation / infiltration into epidydimal fat” value is on record as “blocked”, the “UCP1 expression in BAT” value was “enhanced”, the “liver TG” value was “decreased” and the liver fibrosis result is reported as “attenuated”. For the same molecule, in data set [3] (setting [6]), the “circulating TG” value is on record as “decreased” and the circulating cholesterol entry was “decreased”. Besides, in data set [3] (setting [7]), the “MDB (Mallory-Denk body) formation” value is reported as “prevented”. In addition, in data set [3] (setting [8]), the blood insulin entry is on record as “had no effect” and the body weight result is listed as “had no effect”. In addition, the hepatic steatosis entry in data set [3] (HFD-fed MUP-uPA mice, 10 μg/g i.p. on alternate days for 6 weeks after 6 weeks of HFD, liver sections) is “prevented”. Moreover, in data set [3] (HFD-fed MUP-uPA mice, 10 μg/g i.p. on alternate days for 6 weeks, liver), the macrophage recruitment entry is on record as “decreasing”. Further, in data set [3] (setting [9]), the ballooning degeneration entry is listed as “prevented” and the p62 accumulation entry was “prevented”. The “SREBP1/2 activation in liver” value in data set [3] (IB of liver WCL and NE, HFD-fed MUP-uPA mice, 10 μg/g i.p. on alternate days for 6 weeks) is recorded as “attenuated”. Besides, the “energy expenditure, as suggested by AMPK activation in peripheral tissues, including liver and skeletal muscle” value in data set [3] (IB of liver and muscle extracts, HFD-fed MUP-uPA mice, 10 μg/g i.p. on alternate days for 6 weeks) is given as “increased”. The “established NASH” value in data set [3] (MUP-uPA mice, 10 μg/g for 6 weeks after 6 weeks of HFD feeding, kept on HFD) was “ameliorates”. Further, in data set [3] (epidydimal fat, HFD-fed MUP-uPA mice, 10 μg/g i.p. on alternate days for 6 weeks), the adipocyte enlargement entry is reported as “blocked”. In addition, in data set [3] (setting [10]), the “INSIG1 or 2 expression” value is listed as “had no effect”, the IRS2 expression result is on record as “had no effect”, the StARD4 expression result is on record as “reduced” and the mTORC1/p70S6K activation entry was “had no effect”. For the same molecule, in data set [3] (qRT-PCR, HFD-fed MUP-uPA mice, 10 μg/g i.p. on alternate days for 6 weeks), the “expression of inflammatory cytokines and markers as well as fibrosis-related genes” value is “reduced”.

For tunicamycin, the “Casp2 protein and RNA in liver” value in data set [4] is “induced”.

For z-VDVAD-fmk, in data set [3] (setting [6]), the “ATM (adipose tissue macrophage) accumulation / infiltration into epidydimal fat” value is listed as “reduced”, the “UCP1 expression in BAT” value is recorded as “elevating”, the “inflammatory infiltration in livers” value is “decreased” and the “liver TG” value is on record as “significantly prevented”. Also, in data set [3] (setting [6]), the liver fibrosis entry is “dramatically reduced”, the “circulating TG” value is reported as “decreased” and the circulating cholesterol entry was “decreased”. For the same molecule, the “MDB (Mallory-Denk body) formation” value in data set [3] (setting [7]) is “decreased”.

B1: Casp2-HA (mouse Casp2 with a C terminal HA epitope) (protein)
chain: MAAPSGRSQSSLHRKGLMAADRRSRILAVCGMHPDHQETLKKNRVVLAKQLLLSELLEHLLEKDIITLEMRELIQAKGGSFSQNVELLNLLPKRGPQAFDAFCEALRETRQGHLEDLLLTTLSDIQHVLPPLSCDYDTSLPFSVCESCPPHKQLRLSTDATEHSLDNGDGPPCLLVKPCTPEFYQAHYQLAYRLQSQPRGLALVLSNVHFTGEKDLEFRSGGDVDHTTLVTLFKLLGYNVHVLHDQTAQEMQEKLQNFAQLPAHRVTDSCVVALLSHGVEGGIYGVDGKLLQLQEVFRLFDNANCPSLQNKPKMFFIQACRGDETDRGVDQQDGKNHTQSPGCEESDAGKEELMKMRLPTRSDMICGYACLKGNAAMRNTKRGSWYIEALTQVFSERACDMHVADMLVKVNALIKEREGYAPGTEFHRCKEMSEYCSTLCQQLYLFPGYPPT
Consider B1, for which the “SREBP activation/cleavage (immunoblot)” value in data set [5] is “co-transfection of Casp2 with SREBP2 into either SCAP-deficient (293^ΔSCAP) or WT HEK293 cells did not result in SREBP1/2 activation/cleavage, unless an SP expression vector was also included”.
